The record followed here is patent US9447157B2, “Nitration shielding peptides and methods of use thereof” (Augusta University Research Institute, Inc., priority 2013, dated 2016).

Test [1] has as its system human lung microvascular endothelial cells (HLMVEC). The test is described as follows: Endothelial monolayer resistance (ECIS, TER) in LPS-challenged HLMVEC. The class given is cell-based. Conditions: HLMVEC, peptide 100 ng/ml 30 min, then LPS 1 EU/ml. Here is the method:
The electrical resistance of the endothelial cell monolayer was measured with the electrical cell impedance sensor (ECIS) technique. In this system, the cells are cultured on gold plated electrodes. The change in resistance across the monolayer is measured through an amplifier attached to the arrays. Each study was performed when the resistance reached a plateau. The data was normalized to the initial voltage and plotted as a normalized resistance.
To examine if protein nitration by peroxynitrite is a contributing factor in endothelial barrier disruption in response to LPS, transendothelial resistance (TER) was measured in HLMVEC in the presence or absence of the peroxynitrite scavenger, MnTmPyp. HLMVEC were challenged with LPS (1 EU/ml) in the presence or absence of the peroxynitrite scavenger, MnTMPyP (25 μM).
To evaluate the role played by NOS in the barrier dysfunction, HLMVEC were exposed to LPS in the presence or absence of ETU (a non-specific NOS inhibitor) or 1400W (to inhibit iNOS). HLMVEC were challenged with LPS (1 EU/ml) in the presence or absence of the general NOS inhibitor, ETU (200 μM) or the iNOS specific inhibitor, 1400W (100 μM). The LPS-mediated decrease in TER was attenuated in the presence of ETU, but not 1400W (FIG. 1B). The important role of eNOS was then confirmed using a siRNA approach. HLMVEC were transiently transfected with a siRNA against eNOS or a scrambled control siRNA. After 48 h, there was a significant knockdown of eNOS protein levels (50%), as determined by Western blotting. Reducing eNOS protein levels preserved HLMVEC barrier function when challenged with LPS (FIG. 1C).

Test [2] relates to HLMVEC. The test is described as follows: Total protein nitration (3-NT/β-actin) in LPS-treated HLMVEC. The class given is cell-based, human. Conditions: peptide 100 ng/ml 30 min, then LPS 1 EU/ml.
Description: Cell extracts were separated on 4-20% gels and electrophoretically transferred to PVDF membrane (Bio-Rad), then blocked with 5% nonfat dry milk in Tris-buffered saline. The membranes were probed with antibodies to RhoA (Cell Signaling), eNOS (BD), iNOS (Cell Signaling), or 3-Nitrotyrosine (Calbiochem). Reactive bands were visualized using chemi-luminescence (Pierce) on a Kodak 440CF image station. Band intensity was quantified using Kodak 1D image processing software. Protein loading was normalized by re-probing with mouse anti-β-actin.
The test system of test [3] is HLMVEC. The test is described as follows: Gaps formation between cells (ZO-1 immunofluorescence) in HLMVEC. The conditions noted are these: peptide 100 ng/ml, LPS 1 EU/ml. The class given is cell-based, human. Here is the method:
HLMVEC were grown on gelatin-coated coverslips and exposed to LPS in the presence or absence of the NipR1 peptides. The cells were permeabilized and blocked for 1 h at 25° C. in 5% BSA blocking buffer. A primary antibody against ZO-1 (Invitrogen, 1:100 dilution) was added. Plates were incubated overnight at 4° C. then a secondary antibody (AlexaFluor) was added for 2 h. Slides were examined with Zeiss immunofluorescence microscope Axio Observer D1. The gaps between the cells were calculated using Zeiss Axio Observer software.

The target of test [4] is T1, RhoA (Mus musculus, UniProt Q9QUI0).
T1 construct: from tissue; host or cells: mouse lung (male C57Bl/6)
T1 sequence (Q9QUI0 whole entry): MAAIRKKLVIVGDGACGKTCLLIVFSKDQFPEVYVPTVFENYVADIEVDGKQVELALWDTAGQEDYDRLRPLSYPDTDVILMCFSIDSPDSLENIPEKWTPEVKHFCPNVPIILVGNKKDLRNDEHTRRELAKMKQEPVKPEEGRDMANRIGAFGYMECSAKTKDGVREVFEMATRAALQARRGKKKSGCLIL
The test is described as follows: RhoA activity, nitration and protein in lungs of LPS treated mice. In kind it is in vivo. Here is the method: The Committee on Animal Research at Georgia Regents University approved all animal protocols and procedures. Stock solutions of Escherichia coli LPS (0111:B4) were prepared in saline. […] Mice were examined 24 h after LPS treatment. At the end of the treatment lungs were flushed with 3 ml of ice-cold PBS (5 mM EDTA), excised, dipped in saline and blotted dry. A portion of the lung was quickly snap-frozen in liquid nitrogen, crushed to powder in a pre-chilled mortar and stored at -80° C. The remaining lung tissue was stored at -80° C. […] After 24 h, mice were sacrificed and lung tissue was obtained to determine RhoA activity and RhoA nitration, LPS induced RhoA activation in the mouse lung as in HLMVEC (FIG. 7A). […] Total RhoA protein levels and basal RhoA nitration were measured. […] Likewise, basal RhoA nitration levels (FIG. 7D) were unchanged.

Test [5] has as its system LPS treated mice. Nature of the test: Mouse model of ALI induced by intra-tracheal LPS: BALF, weight, histopathology, MPO, lung mechanics, cytokines. The class given is in vivo. Here is the method:
The Committee on Animal Research at Georgia Regents University approved all animal protocols and procedures. Stock solutions of Escherichia coli LPS (0111:B4) were prepared in saline. […] Mice were examined 24 h after LPS treatment. At the end of the treatment lungs were flushed with 3 ml of ice-cold PBS (5 mM EDTA), excised, dipped in saline and blotted dry. A portion of the lung was quickly snap-frozen in liquid nitrogen, crushed to powder in a pre-chilled mortar and stored at −80° C. The remaining lung tissue was stored at −80° C.
Isolation of Bronchoalveolar Lavage Fluid (BALF) BALF was obtained by instilling and withdrawing 1 mL of PBS via a tracheal cannula. Part of the solution was used to determine protein levels in the BALF. In addition, cells were pelleted at 2,500 g for 10 min and resuspended in water for 15 sec to lyse red blood cells. Leukocytes were resuspended in 1 ml PBS, and total cell count determined using a haemocytometer.
Mice were anesthetized with pentobarbital (90 mg/kg, i.p.), tracheostomized with a metal 1.2 mm (internal diameter) cannula and connected to a Flexi Vent (Scireq Inc) ventilator. Ventilation was initiated at a tidal volume of 10 ml/kg and a rate of 150/min. A TLC maneuver was performed, followed by 15 sec later, by a sinusoidal 1 Hz oscillation. Subsequently, an 8 sec forced oscillatory signal (0.5-19.6 Hz) was applied, the mechanical input impedance of the respiratory system was calculated, and a model containing a constant phase tissue compartment was fit to input impedance in order to evaluate tissue elastance. Dynamic pressure-volume maneuvers were performed by step-wise increasing the airway pressure to 30 cm H2O and then reversing the process.
Lungs were inflated with 10% formalin under 15 cm H2O pressure and immersed in the same solution before tissue processing into paraffin embedded blocks and 4 μm sections were then cut stained with H&E. Histopathological assessment was conducted by two researchers who were masked to treatment group. H&E stained sections were scored for the presence of neutrophil in the alveolar space, neutrophils in the interstitial space, the existence of hyaline membranes, proteinaceous debris filling the airspaces and alveolar septal thickening as described previously (Matute-Bello, et al., Am. J. Respir. Cell Mol. Biol. 44, 725-738 (2011)).
Sections (5 μm) were cut from paraffin blocks and mounted on treated slides (Superfrost+). Slides were air dried overnight, placed in a 60° C. oven for 30 min, deparaffinized in xylene and run through graded alcohol to distilled water. Endogenous peroxidase was quenched with 0.3% H2O2 for 5 min, followed by two rinses with distilled water. Slides were pretreated with Target pH 6, (Dako), rinsed in distilled water, incubated in Power Block (Biogenex), rinsed in distilled water, placed in PBS for 5 min, incubated with primary antimyeloperoxidase (Cappel, 1:2000 dilution) for 30 min at 25° C. After two rinses in PBS, slides were incubated with a peroxidase-labeled polymer conjugated to goat anti-rabbit secondary IgG (Envision+, Dako) for 30 min and rinsed in PBS. Bound antibody was detected with the DAB+ substrate kit, (Dako). Hematoxylin was used as a counter-stain. MPO-stained slides were then evaluated by scoring (0-4) for the presence of neutrophils within the alveolar walls.
Analytes (pg/mL) were assessed with the MCYTOMAG70K assay (EMD Millipore) as previously described (Lucas, R., et al., Proc. Natl. Acad. Sci. USA 109, 2084-2089 (2012)).
Mice were used to perform additional physiological, biochemical and morphological studies to evaluate the efficacy of the NipR1 peptide in attenuating symptoms of ALI. […] After 24 h, mice were anesthetized and BALF was collected. Measurements of lung mechanics were also carried out.

In test [6] the target is T2, RhoA (Homo sapiens, UniProt P61586, Y34F).
T2 construct: polyHis (6His); made in house; host or cells: Escherichia coli BL21
T2 sequence (P61586 whole entry Y34F): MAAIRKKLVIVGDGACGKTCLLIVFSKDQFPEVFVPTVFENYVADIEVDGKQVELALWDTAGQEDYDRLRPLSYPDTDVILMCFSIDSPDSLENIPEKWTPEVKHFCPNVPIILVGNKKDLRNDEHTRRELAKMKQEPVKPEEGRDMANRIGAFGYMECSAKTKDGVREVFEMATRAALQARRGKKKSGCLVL
Nature of the test: Stopped-flow kinetic analysis of mant-GDP/mant-GTP binding to RhoA. Conditions: stop-flow analysis, purified Y34F RhoA. Here is the method:
RhoA was treated with authentic peroxynitrite (500 μM, 30 min) to induce tyrosine nitration in buffered solution. For kinetic analyses, 2 μM of either mart-GTP or -GDP was mixed with RhoA (0.1 μM) in a stopped-flow instrument (SX-20, […]). Increases in fluorescent intensity mant-nucleotide binding to RhoA were then measured using excitation 350 nm and cutoff filter 395 nm for 0.2-1 second. Acquired kinetic curves for 3-5 experiments were averaged and fitted using the Pro-kineticist software to determine observed binding constants.
To test the validity of the MD data kinetic studies were performed. His-tagged human RhoA construct was expressed in the Escherichia con BL21 strain. First, the bacterial lysate was purified by 6His-tag affinity on a Ni-NTA column. Second, the proteins in the elution fraction from the affinity purification were separated by size-exclusion chromatography (FIG. 11). The fraction containing RhoA was identified both by Coomassie blue staining and Western blot analysis. The recombinant purified RhoA was subjected to rapid flow kinetics to evaluate GDP and GTP binding using fluorescently labeled guanine nucleotides. Peroxynitrite decreases GDP binding to purified RhoA. Human recombinant RhoA was exposed to authentic peroxynitrite (100 μM, 30 min) on ice. […]

Setting [7] is: peptide i.p. 0.1 mg/kg 6 h prior to i.t. LPS 2 mg/kg, 24 h.

On to “HRKKRRQRRRQFPVYVPTVF (SEQ ID NO:25) (Human immunodeficiency virus) [NipR1]”, for which the “Attenuation of LPS-mediated disruption of the HLMVEC barrier (preservation of TER)” value in test [1] is given as “attenuated”. Besides, the “Increase in total protein nitration induced by LPS” value in test [2] was “unaffected”. The “Cell-cell gaps after LPS” value in test [3] is given as “reduction”. Also, the “Basal RhoA nitration levels in mouse lung” value in test [4] (peptide alone, no LPS) is on record as “unchanged”. Also, in test [4] (setting [7]), the “Attenuation of LPS-mediated increase in RhoA activity in the mouse lung” value is listed as “attenuated” and the “Attenuation of LPS-mediated increase in RhoA nitration in the mouse lung” value is reported as “attenuated”. In test [4] (peptide i.p. 0.1 mg/kg, with or without LPS), the “Total RhoA protein levels in mouse lung” value was “Neither peptide nor LPS treatment altered”. For the same substance, in test [5] (LPS + NipR1 vs LPS, MCYTOMAG-70K assay), the “LPS-mediated induction of multiple pro-inflammatory cytokines and chemokines in BALF” value is “attenuated”. Also, in test [5] (setting [7]), the “Attenuation of LPS induced increase in MPO staining in the alveolar space” value is given as “attenuated”, the “Attenuation of LPS-induced increase in total white blood cell counts in BALF” value is given as “attenuated”, the “MPO activity in lung homogenates after LPS” value is recorded as “attenuated” and the “Prevention of LPS-induced reduction in lung elastance (dynamic pressure-volume relationships)” value is recorded as “prevented”. Besides, in test [5] (setting [7]), the “Prevention of weight loss associated with LPS exposure” value is recorded as “able to prevent” and the “Reduction of LPS-induced histopathological changes in the lungs (H&E)” value is recorded as “reduced”. Besides, the “Inflammatory response induced by LPS” value in test [5] (peptide i.p. prior to i.t. LPS) was “reduced”.

Turning to “Y34FRhoA: purified RhoA mutant protein in which the tyrosine residue (Y) was replaced by phenylalanine”, the “Binding of GTP (mant-GTP) to RhoA mutant” value in test [6] is listed as “No binding”.
